Laboratory results as given in patent US10052330B2, “Substituted pyrido[3,4-b]pyrazines as Syk inhibitors” (HUTCHISON MEDIPHARMA LIMITED, priority 2011, dated 2018).
pIC50: −log10 of the molar value.

How the values were obtained:
[1] = test system: RBL-2H3 cells; test: IgE-induced Beta-hexosaminidase secretion in RBL-2H3 cells; format: cell-based; conditions: Rattus norvegicus, RBL-2H3, RBL-2H3 cells sensitized with SPE-7, stimulated with DNP-BSA; upper bound of each range is 'less than'; read-out: IC50, IgE-induced Beta-hexosaminidase secretion
[2] = target: Syk kinase (Homo sapiens, UniProt P43405); test: Syk kinase enzymatic assay (Kit-Tyr 2 Peptide); format: biochemical; conditions: 8 concentrations, 1 μM down to 0.0003 μM; upper bound of each range is 'less than'; read-out: IC50: Enzymatic Activity (Syk kinase)
[3] = test system: Bone marrow mast cells (BMMCs); test: IgE-induced LAT phosphorylation in bone marrow mast cells; format: cell-based, mice; conditions: Mus musculus, BMMC; BMMCs from female BALB/C mice, sensitized with SPE-7, stimulated with DNP-BSA; upper bound is 'less than'; read-out: IC50, IgE-induced LAT phosphorylation

Compound	pIC50 [2]	pIC50 [1]	pIC50 [3]
COc1ccc(-c2cc3nccnc3c(NCC3CCCNC3)n2)cc1 (stereo not shown) [Compound 10]	7.00 to 9.00	6.00 to 7.00	6.00 to 7.00
CN(C)c1ccc(-c2cc3nccnc3c(NCC3CCCNC3)n2)cc1 (stereo not shown) [Compound 12]	7.00 to 9.00	7.00 to 9.00	6.00 to 7.00
COc1ccc(-c2cc3nccnc3c(NC[C@H]3CCCNC3)n2)cc1F [Compound 35]	7.00 to 9.00	7.00 to 9.00	6.00 to 7.00
CNc1ccc(-c2cc3nccnc3c(NCC3CCCNC3)n2)cc1 (stereo not shown) [Compound 44]	7.00 to 9.00	7.00 to 9.00	6.00 to 7.00
c1cnc2c(NC[C@H]3CCCNC3)nc(-c3ccc(N4CCCC4)cc3)cc2n1 [Compound 70]	7.00 to 9.00	7.00 to 9.00	6.00 to 7.00
c1cnc2c(N3CCC4(CCNC4)C3)nc(-c3ccc(N4CCOCC4)cc3)cc2n1 (stereo not shown) [Compound 71]	7.00 to 9.00	6.00 to 7.00	6.00 to 7.00
Nc1ccc(-c2cc3nccnc3c(NC[C@H]3CCCNC3)n2)cc1Cl [Compound 81]	7.00 to 9.00	6.00 to 7.00	6.00 to 7.00
CNc1ccc(-c2cc3nccnc3c(NC[C@H]3CCCNC3)n2)cc1 [Compound 82]	7.00 to 9.00	7.00 to 9.00	6.00 to 7.00
COc1ccc(-c2cc3nccnc3c(NC[C@H]3CCCNC3)n2)cc1Cl [Compound 93]	7.00 to 9.00	7.00 to 9.00	6.00 to 7.00
Cc1cc(-c2cc3nccnc3c(NC[C@H]3CCCNC3)n2)ccc1N1CCOCC1 [Compound 94]	7.00 to 9.00	6.00 to 7.00	6.00 to 7.00
c1cnc2c(NC[C@@H]3CNCCO3)nc(-c3ccc(N4CCOCC4)nc3)cc2n1 [Compound 99]	7.00 to 9.00	7.00 to 9.00	6.00 to 7.00
c1cnc2c(N3CCC4(CCCNC4)C3)nc(-c3ccc(N4CCOCC4)cc3)cc2n1 (stereo not shown) [Compound 105]	7.00 to 9.00	7.00 to 9.00	6.00 to 7.00
CN(C)c1ccc(-c2cc3nccnc3c(NC[C@@H]3CNCCO3)n2)cc1 [Compound 107]	7.00 to 9.00	7.00 to 9.00	6.00 to 7.00
c1cnc2c(NC3CC3)nc(-c3ccc(N4CCOCC4)cc3)cc2n1 [Compound 181]		6.00 to 7.00	6.00 to 7.00
c1cc(CNc2nc(-c3ccc(N4CCOCC4)cc3)cc3nccnc23)ccn1 [Compound 184]		6.00 to 7.00	6.00 to 7.00

More lines, main results first:

pIC50 [2]	Compound	pIC50 [1]	pIC50 [3]
7.00 to 9.00	Cc1cc(-c2cc3nccnc3c(NC[C@@H]3CNCCO3)n2)ccc1N1CCOCC1 [Compound 116]	7.00 to 9.00	6.00 to 7.00
7.00 to 9.00	CNc1ccc(-c2cc3nccnc3c(NC[C@@H]3CNCCO3)n2)cc1F [Compound 137]	7.00 to 9.00	6.00 to 7.00
7.00 to 9.00	CNc1ccc(-c2cc3nccnc3c(NC[C@H]3CCCNC3)n2)cc1F [Compound 140]	7.00 to 9.00	6.00 to 7.00
7.00 to 9.00	FC1CNCC(CNc2nc(-c3ccc(N4CCOCC4)cc3)cc3nccnc23)C1 (stereo not shown) [Compound 156]	7.00 to 9.00	6.00 to 7.00
6.00 to 7.00	OC[C@@H]1CCN(c2nc(-c3ccc(N4CCOCC4)cc3)cc3nccnc23)C1 [Compound 159, (R)-(1-(7-(4-morpholinophenyl)pyrido[4,3-b]pyrazin-5-yl)pyrrolidin-3-yl)methanol]	7.00 to 9.00	6.00 to 7.00
6.00 to 7.00	C[C@H](O)CNc1nc(-c2ccc(N3CCOCC3)cc2)cc2nccnc12 [Compound 161]	6.00 to 7.00	6.00 to 7.00
6.00 to 7.00	OC[C@H]1CCN(c2nc(-c3ccc(N4CCOCC4)cc3)cc3nccnc23)C1 [Compound 163, (S)-(1-(7-(4-morpholinophenyl)pyrido[4,3-b]pyrazin-5-yl)pyrrolidin-3-yl)methanol]	7.00 to 9.00	6.00 to 7.00
7.00 to 9.00	CN(C)c1ccc(-c2cc3nccnc3c(NCCCN)n2)cc1 [Compound 185]	6.00 to 7.00	6.00 to 7.00
6.00 to 7.00	NC(=O)CCNc1nc(-c2ccc(N3CCOCC3)cc2)cc2nccnc12 [Compound 188]	7.00 to 9.00	6.00 to 7.00
